Results reported in paper PMC8041284, “Tunable Methacrylamides for Covalent Ligand Directed Release Chemistry” (Journal of the American Chemical Society, 2021).
Read-outs that look alike come from different tables or passages of the source.

Target: BTK (Homo sapiens, UniProt Q06187)
Test: biochemical
[1] = read-out: BTK inhibition (%), 0.75 uM BTK, […] probe 3l, 15 min preincubation

BTK, sequence (Q06187 402-655 limits assumed): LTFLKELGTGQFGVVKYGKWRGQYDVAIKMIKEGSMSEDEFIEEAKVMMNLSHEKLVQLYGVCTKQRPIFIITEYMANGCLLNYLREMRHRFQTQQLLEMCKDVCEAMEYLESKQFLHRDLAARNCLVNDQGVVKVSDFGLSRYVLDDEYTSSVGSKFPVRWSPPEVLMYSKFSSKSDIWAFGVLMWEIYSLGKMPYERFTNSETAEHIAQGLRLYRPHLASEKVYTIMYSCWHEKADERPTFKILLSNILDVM

Row | SMILES | inhibition at 10 µM [1] [%] | inhibition at 10 µM (read-out: BTK inhibition (%)) [%]
1 | O=C(CCc1ccc(O)cc1)c1c(O)cc(O)cc1O[C@@H]1O[C@H](CO)[C@@H](O)[C@H](O)[C@H]1O [PCM-0089058] | 4.7 | –
2 | CO[C@H]1[C@@H](O)[C@H](O[C@@H]2[C@@H](C)O[C@@H](O[C@H]3CC[C@@]4(C)[C@@H](CC[C@@]56O[C@@]57CC[C@@H](C(C)=O)[C@@]7(C)[C@H](OC(C)=O)[C@@H](OC(=O)c5ccccc5)[C@H]46)C3)C[C@H]2OC)O[C@H](C)[C@H]1O [PCM-0216600] | -12.4 | –
3 | O=c1cc(-c2ccc(O)cc2)oc2cc(O)c([C@@H]3O[C@H](CO)[C@@H](O)[C@H](O)[C@H]3O)c(O)c12 [PCM-0216601] | 11.6 | –
4 | NC(=O)NO [PCM-0065169] | 10.9 | –
5 | CO[C@H]1/C=C/O[C@@]2(C)Oc3c(C)c(O)c4c(O)c(cc(O)c4c3C2=O)NC(=O)/C(C)=C\C=C\[C@H](C)[C@H](O)[C@@H](C)[C@@H](O)[C@@H](C)[C@H](OC(C)=O)[C@@H]1C [PCM-0216568] | 22.4 | –
6 | N#C/C=C1/C=C[C@@H](O)[C@H](O)[C@H]1O[C@@H]1O[C@H](CO)[C@@H](O)[C@H](O)[C@H]1O [PCM-0216369] | -11.6 | –
7 | COc1cc2c(Nc3ccc(Br)cc3F)ncnc2cc1OCC1CCN(C)CC1 [PCM-0094968] | 25.5 | –
8 | CC1OC2OC3C(OCC(O)C3O)OC(=O)C34CCC(C)(C)CC3C3=CCC5C6(C)CC(O)C(OC7OC(CO)C(O)C(O)C7OC7OCC(OC(=O)CC(C)(O)CC(=O)OC1C(OC1OCC(O)C(O)C1O)C2O)C(O)C7O)C(C)(CO)C6CCC5(C)C3(C)CC4O (stereo not drawn) [PCM-0216328] | -1.5 | –
9 | O=c1n(CCCN2CCN(c3cccc(Cl)c3)CC2)nc2ccccn12 [PCM-0064865] | -0.9 | –
10 | CC[C@]12C=CCN3CC[C@@]4(c5ccc(OC)cc5N(C)[C@H]4[C@@](O)(C(=O)OC)[C@@H]1OC(C)=O)[C@@H]32 [PCM-0215165] | 6.2 | –
11 | CN[C@@H]1[C@H](O)[C@H](NC)[C@H]2O[C@@]3(O)C(=O)C[C@@H](C)O[C@H]3O[C@@H]2[C@H]1O [PCM-0214688] | 2.3 | –
12 | Cc1cc(-c2nc(-c3ccc(OC(F)(F)F)cc3)no2)nn1Cc1ccnc(N2CCN(C3CC3)CC2)c1 [PCM-0215339] | -1.5 | –
13 | O=C(O)CCCCCCCC(O)C(O)CCCCCCO (stereo not drawn) [PCM-0215978] | -13.1 | –
14 | CC1(C)CC(O)CC(C)(C)N1[O] [PCM-0095391] | – | 10.3
15 | CC(=O)O[C@]1(C(C)=O)CC[C@H]2[C@@H]3C[C@H](C)C4=CC(=O)CC[C@]4(C)[C@H]3CC[C@@]21C [PCM-0095356] | -18.7 | –
16 | CC1(C)CC[C@]2(C(=O)O)CCC3=C([C@@H](CCl)C[C@@H]4[C@@]5(C)C[C@H](O)[C@H](O)[C@@](C)(C(=O)O)[C@@H]5CC[C@@]34C)[C@@H]2C1 [PCM-0216388] | -4.6 | –
17 | C[C@@H]1O[C@@H](Oc2c(-c3cc(O)c(O)c(O)c3)oc3cc(O)cc(O)c3c2=O)[C@H](O)[C@H](O)[C@H]1O [PCM-0089676] | -2.3 | –
18 | C[C@@H](O)[C@H]1C(=O)N2C(C(=O)O)=C([C@H]3CCCO3)S[C@H]12 [PCM-0215154] | -2.3 | –
19 | C/C=C(/C)C(=O)OC(=O)/C(C)=C\C [PCM-0215943] | -8.6 | –
20 | CCN(CC)CCCC(C)Nc1c2ccc(Cl)cc2nc2ccc(OC)cc12 (stereo not drawn) [PCM-0065371] | -8.5 | –
21 | CO/N=C(\C(=O)N[C@@H]1C(=O)N2C(C(=O)O)=CCS[C@H]12)c1csc(N)n1 [PCM-0215091] | 7.8 | –
22 | Cc1nc2n(c(=O)c1CCN1CCC(c3noc4cc(F)ccc34)CC1)CCCC2O (stereo not drawn) [PCM-0065046] | 6 | –

Row | SMILES | inhibition at 10 µM [1] [%] | inhibition at 10 µM (read-out: BTK inhibition (%)) [%]
23 | CCCSc1ccc2nc(NC(=O)OC)[nH]c2c1 [PCM-0085774] | -10.1 | –
24 | CCC1=C(C)CN(C(=O)NCCc2ccc(S(=O)(=O)NC(=O)NC3CCC(C)CC3)cc2)C1=O (stereo not drawn) [PCM-0086384] | 8.6 | –
25 | C[C@H](C[C@H](O)[C@@H](O)C(C)(C)O)C1=C2C[C@H](O)[C@H]3[C@@]4(C)CCC(=O)C(C)(C)[C@@H]4CC[C@]3(C)[C@@]2(C)CC1 [PCM-0216519] | -29.3 | –
26 | NC(=NCCCCCCN=C(N)/N=C(\N)Nc1ccc(Cl)cc1)/N=C(\N)Nc1ccc(Cl)cc1 [PCM-0085888] | 3.1 | –
27 | N[C@H]1C[C@@H]1c1ccc(-c2cccc(O)c2)cc1 [PCM-0095788] | -1.5 | –
28 | CC/C(=C(/CC)c1ccc(O)cc1)c1ccc(O)cc1 [PCM-0086456] | -26.5 | –
29 | CCN(CC)C(=O)[C@]1(c2ccccc2)C[C@@H]1CN [PCM-0095594] | 0.8 | –
30 | CCOc1cc(C(=O)N2CCC(N3CCN(C)CC3)CC2)ccc1Nc1ncc2c(n1)N(C1CCCC1)c1ccccc1C(=O)N2C [PCM-0213331] | 0 | –
31 | N#CC(C#N)=NNc1ccc(OC(F)(F)F)cc1 [PCM-0215645] | 52.5 | –
32 | CC1(C)CC[C@]2(C(=O)O[C@@H]3O[C@H](CO)[C@@H](O)[C@H](O)[C@H]3O)CC[C@]3(C)C(=CC[C@@H]4[C@@]5(C)CC[C@H](O[C@@H]6O[C@H](C(=O)O)[C@@H](O)[C@H](O)[C@H]6O[C@@H]6O[C@H](CO)[C@@H](O)[C@H](O)[C@H]6O)C(C)(C)[C@@H]5CC[C@]43C)[C@@H]2C1 [PCM-0216395] | 4.6 | –
33 | C#C[C@]1(O)CC[C@H]2[C@@H]3CCC4=CC(=O)CC[C@@H]4[C@H]3CC[C@@]21C [PCM-0085792] | 3.1 | –
34 | CN[C@H]1C(=O)N[C@@H]2Cc3ccc(cc3)Oc3cc4cc(c3O[C@@H]3O[C@H](C(=O)O)[C@@H](O)[C@H](O)[C@H]3NC(=O)CCCCCCCCC(C)C)Oc3ccc(cc3Cl)[C@@H](O)[C@@H]3NC(=O)[C@H](NC(=O)[C@@H]4NC(=O)[C@@H](NC2=O)c2cc(cc(O)c2Cl)Oc2cc1ccc2O)c1ccc(O)c(c1)-c1c(O[C@H]2O[C@H](CO)[C@@H](O)[C@H](O)[C@@H]2O)cc(O)cc1[C@@H](C(=O)NCCCN(C)C)NC3=O [PCM-0215113] | 73.2 | –
35 | CCCCCCCCCC(=O)N[C@@H](Cc1c[nH]c2ccccc12)C(=O)N[C@H](CC(N)=O)C(=O)N[C@@H](CC(=O)O)C(=O)N[C@@H]1C(=O)NCC(=O)N[C@@H](CCCN)C(=O)N[C@@H](CC(=O)O)C(=O)N[C@H](C)C(=O)N[C@@H](CC(=O)O)C(=O)NCC(=O)N[C@H](CO)C(=O)N[C@@H]([C@H](C)CC(=O)O)C(=O)N[C@@H](CC(=O)c2ccccc2N)C(=O)O[C@@H]1C [PCM-0095008] | -1.6 | –
36 | Nc1ccc2ncnc(NCCc3ccc(Oc4ccccc4)cc3)c2c1 [PCM-0095674] | -4.1 | –
37 | CCCCOc1nc(N)c2c(n1)N(Cc1cccc(CN3CCCC3)c1)CC(=O)N2 [PCM-0215695] | 17 | –
38 | CCOC(=O)/C=C\C(=O)OCC [PCM-0215691] | 10.1 | –
39 | Cc1[nH]nc2ccc(-c3cncc(OC[C@@H](N)Cc4ccccc4)c3)cc12 [PCM-0095333] | -17.2 | –
40 | CCOC(=O)N1CCN(c2ccc(OC[C@H]3CO[C@](Cn4ccnc4)(c4ccc(Cl)cc4Cl)O3)cc2)CC1 [PCM-0216072] | 8.5 | –
41 | Cc1c(NC(=O)OC[C@@H]2COCCN2)cn2ncnc(Nc3ccc4c(cnn4Cc4cccc(F)c4)c3)c12 [PCM-0094984] | 32.4 | –
42 | COc1ccc2c(c1OC)CN1CCc3cc4c(cc3C1C2)OCO4 (stereo not drawn) [PCM-0216126] | 13.1 | –
43 | COc1cc2nc(N(C)CCCNC(=O)C3CCCO3)nc(N)c2cc1OC (stereo not drawn) [PCM-0064661] | 1.6 | –
44 | C[C@H](CCC(=O)O)[C@H]1CC[C@H]2[C@@H]3[C@@H](O)C[C@@H]4C[C@H](O)CC[C@]4(C)[C@H]3CC[C@]12C [PCM-0214641] | 24.1 | –

Second part, led by results:

Row | inhibition at 10 µM [1] [%] | SMILES | inhibition at 10 µM (read-out: BTK inhibition (%)) [%]
45 | 56.8 | COc1cc(NC(=O)c2ccc(-c3ccc(Cl)cc3)o2)cc(OC)c1 [PCM-0095366] | –
46 | -7.8 | C[N+]1(C)CCCC(OC(=O)C(O)(c2ccccc2)c2ccccc2)C1 (stereo not drawn) [PCM-0215256] | –
47 | 9 | Cc1cc2c(F)c(Oc3ncnn4cc(OC[C@@H](C)O)c(C)c34)ccc2[nH]1 [PCM-0095049] | –
48 | -30.9 | CC(C)(CNC(=O)c1cccc(-c2noc(C(F)(F)F)n2)c1)c1coc(-c2ccccc2)n1 [PCM-0215836] | –
49 | 106 | COCCOc1nc(-c2ccc(Cl)c(Cl)c2)n(-c2ccc(NC(=O)CCl)cc2)n1 [PCM-0215327] | –
50 | 6.2 | CC1Cc2ccccc2N1NC(=O)c1ccc(Cl)c(S(N)(=O)=O)c1 (stereo not drawn) [PCM-0085884] | –
51 | 21 | CC(C)NCC(O)COc1ccc(CCOCC2CC2)cc1 (stereo not drawn) [PCM-0064542] | –
52 | -11.6 | CC(C)(NS(=O)(=O)c1ccc2c(Cl)cnc(N=C(N)N)c2c1)C(=O)O [PCM-0215778] | –
53 | -1.4 | CC(C(=O)O)c1ccc(C(=O)c2cccs2)cc1 (stereo not drawn) [PCM-0086408] | –
54 | -10.3 | CONC(=O)c1ccccc1Nc1cc(Nc2cc(C)nn2C(C)C)ncc1Cl [PCM-0215811] | –
55 | 2.3 | Cc1nc2cccc(N)c2c(=O)n1C1CCC(=O)NC1=O (stereo not drawn) [PCM-0215785] | –
56 | -6.9 | Cc1cc([C@@H](C)Nc2ccccc2C(=O)O)c2nc(N3CCOCC3)cc(=O)n2c1 [PCM-0214725] | –
57 | -12.4 | C[C@@H](NC(=O)c1ncnc(N)c1Cl)c1ncc(C(=O)Nc2cc(C(F)(F)F)c(Cl)cn2)s1 [PCM-0215620] | –
58 | -5.4 | Cc1ccc(C=O)o1 [PCM-0216625] | –
59 | -3.4 | CC(C)C(=O)Nc1ccc([N+](=O)[O-])c(C(F)(F)F)c1 [PCM-0065325] | –
60 | -3.9 | Cn1c(=O)cc(C(=O)Nc2ccc3c(c2)OCCO3)c2ccccc21 [PCM-0215702] | –
61 | 91.7 | C=CC(=O)Nc1cccc(Oc2nc(Nc3ccc(N4CCN(C)CC4)cc3)ncc2Cl)c1 [PCM-0095023] | –
62 | -8.3 | C[C@@H](O[C@H]1OCCN(Cc2n[nH]c(=O)[nH]2)[C@H]1c1ccc(F)cc1)c1cc(C(F)(F)F)cc(C(F)(F)F)c1 [PCM-0214564] | –
63 | 17.1 | CC(C)[C@H](C(=O)Nc1ccc(C(=O)NO)cc1)c1ccccc1 [PCM-0095283] | –
64 | -41.2 | Clc1ccc(C(Cn2ccnc2)OCc2ccsc2Cl)c(Cl)c1 (stereo not drawn) [PCM-0085844] | –
65 | 60 | O=C(NCCCNc1nc(Nc2cccc(NC(=O)N3CCCC3)c2)ncc1I)c1cccs1 [PCM-0095061] | –
66 | 20.7 | CSCC1CN(/N=C/c2ccc([N+](=O)[O-])o2)C(=O)O1 (stereo not drawn) [PCM-0216228] | –
